Reference: US20120196899A1, “METHODS AND PRODUCTS FOR TREATING INFLAMMATION” (Rock Creek Pharmaceuticals, Inc., priority 2010, published 2012)
“And” between values parts separate entries of the source, which are not always exact repeats. Equal values may be shown once.

Assay: Clinical chemistry, day 15
Assay type: in vivo, Sprague-Dawley rats
Source text: On day 15, urine was collected on all surviving animals for urinalysis. The animals were euthanized and bled via cardiac puncture. Blood was collected for hematology, clinical chemistry, and coagulation analysis. Tissues were collected, weighed, and stored in 10% neutral-buffered formalin for possible future analysis.

[1] = anatabine 0.75 mg/kg, female rats, individual animals
[2] = anatabine 0.75 mg/kg, male rats, individual animals

Question: For C1=CCC(c2cccnc2)NC1 (racemic) [Anatabine, 1,2,3,6-tetrahydro-[2,3′]bipyridinyl], which BUN [1] is on record?
Answer: Its BUN is 15 mg/dL (3×) and 16 mg/dL (2×).

Question: And the CHLORIDE [1]?
Answer: The CHLORIDE was 97 mEq/L (2×) and 96 mEq/L and 99 mEq/L and 101 mEq/L.

Question: What about the CHOLESTEROL [1] of the same molecule?
Answer: The CHOLESTEROL was 66 mg/dL and 64 mg/dL and 63 mg/dL and 69 mg/dL and 87 mg/dL.

Question: What about the CREATININE [1] of the same molecule?
Answer: Its CREATININE is 0.5 mg/dL (2×) and 0.4 mg/dL (3×).

Question: What about the “DIR BILIRUBIN” value [1] of the same molecule?
Answer: Its value is 0 mg/dL.

Question: And the GLOBULIN [1]?
Answer: The GLOBULIN was 2.7 g/dL and 3 g/dL (2×).

Question: And the GLUCOSE [1]?
Answer: The GLUCOSE was 237 mg/dL and 247 mg/dL and 217 mg/dL.

Question: And the PHOSPHORUS [1]?
Answer: Its PHOSPHORUS is 9.7 mg/dL and 7.7 mg/dL and 9.6 mg/dL and 9.2 mg/dL and 7 mg/dL.

Question: What about the POTASSIUM [1] of the same molecule?
Answer: The POTASSIUM was 5.5 mEq/L and 5.9 mEq/L and 6 mEq/L and 5.7 mEq/L and 6.3 mEq/L.

Question: And the SODIUM [1]?
Answer: The SODIUM was 145 mEq/L (2×) and 144 mEq/L (2×) and 147 mEq/L.

Question: What about the “TOT BILIRUBIN” value [1] of the same molecule?
Answer: The value was 0 mg/dL.

Question: And the “TOT PROTEIN” value [1]?
Answer: Its value is 6.3 g/dL (2×) and 6.2 g/dL and 6.6 g/dL and 6.5 g/dL.

Question: And the ALBUMIN [2]?
Answer: The ALBUMIN was 3.4 g/dL (2×) and 3.1 g/dL and 3.2 g/dL and 3.3 g/dL.

Question: What about the “ALK PHOSPHATASE” value [2] of the same molecule?
Answer: The value was 479 IU/L and 297 IU/L and 325 IU/L and 337 IU/L and 416 IU/L.

Question: And the ALT [2]?
Answer: The ALT was 75 IU/L and 57 IU/L and 65 IU/L and 50 IU/L and 87 IU/L.

Question: And the AST [2]?
Answer: The AST was 103 IU/L and 66 IU/L and 97 IU/L and 90 IU/L and 92 IU/L.

Question: And the BUN [2]?
Answer: The BUN was 15 mg/dL and 18 mg/dL and 12 mg/dL and 17 mg/dL and 21 mg/dL.

Question: And the CHLORIDE [2]?
Answer: Its CHLORIDE is 98 mEq/L and 99 mEq/L (2×) and 100 mEq/L and 97 mEq/L.

Question: And the CHOLESTEROL [2]?
Answer: Its CHOLESTEROL is 69 mg/dL (2×) and 60 mg/dL and 54 mg/dL and 62 mg/dL.

Question: What about the CREATININE [2] of the same molecule?
Answer: The CREATININE was 0.4 mg/dL (3×) and 0.3 mg/dL (2×).

Question: What about the “DIR BILIRUBIN” value [2] of the same molecule?
Answer: The value was 0 mg/dL (4×) and 0.1 mg/dL.

Question: What about the GLOBULIN [2] of the same molecule?
Answer: The GLOBULIN was 2.6 g/dL and 2.7 g/dL and 2.9 g/dL.

Question: And the GLUCOSE [2]?
Answer: Its GLUCOSE is 222 mg/dL and 160 mg/dL and 198 mg/dL.

Question: And the PHOSPHORUS [2]?
Answer: The PHOSPHORUS was 11 mg/dL and 10.7 mg/dL and 10 mg/dL and 10.6 mg/dL.

Question: What about the POTASSIUM [2] of the same molecule?
Answer: The POTASSIUM was 6.3 mEq/L (2×) and 5.4 mEq/L and 6 mEq/L and 6.6 mEq/L.

Question: What about the SODIUM [2] of the same molecule?
Answer: The SODIUM was 147 mEq/L and 150 mEq/L.

Question: What about the “TOT BILIRUBIN” value [2] of the same molecule?
Answer: Its value is 0 mg/dL (4×) and 0.1 mg/dL.

Question: What about the “TOT PROTEIN” value [2] of the same molecule?
Answer: Its value is 6.2 g/dL and 5.7 g/dL and 5.9 g/dL and 6.1 g/dL and 6.3 g/dL.

Question: What about the albumin levels (anatabine: males 0.75 and […], females 0.1 and 0.75 mg/kg) of the same molecule?
Answer: Its albumin levels is “slight increases in albumin levels”.

Question: What about the ALBUMIN (female, 0.1 mg/kg, group mean) of the same molecule?
Answer: The ALBUMIN was 3.62 g/dL.

Question: And the “ALK PHOSPHATASE” value (female, 0.1 mg/kg, group mean)?
Answer: The value was 248.40 IU/L.

Question: And the ALT (female, 0.1 mg/kg, group mean)?
Answer: Its ALT is 49.60 IU/L.

Question: What about the AST (female, 0.1 mg/kg, group mean) of the same molecule?
Answer: The AST was 77.00 IU/L.

Question: And the “DIR BILIRUBIN” value (female, 0.1 mg/kg, group mean)?
Answer: Its value is 0.00 mg/dL.

Question: And the GLOBULIN (female, 0.1 mg/kg, group mean)?
Answer: The GLOBULIN was 3.02 g/dL.

Question: And the “TOT BILIRUBIN” value (female, 0.1 mg/kg, group mean)?
Answer: The value was 0.00 mg/dL.

Question: And the “TOT PROTEIN” value (female, 0.1 mg/kg, group mean)?
Answer: The value was 6.64 g/dL.

Question: What about the ALBUMIN (female, 0.75 mg/kg, group mean) of the same molecule?
Answer: The ALBUMIN was 3.52 g/dL.

Question: And the “ALK PHOSPHATASE” value (female, 0.75 mg/kg, group mean)?
Answer: Its value is 158.00 IU/L.

Question: What about the ALT (female, 0.75 mg/kg, group mean) of the same molecule?
Answer: The ALT was 54.60 IU/L.

Question: And the AST (female, 0.75 mg/kg, group mean)?
Answer: The AST was 73.20 IU/L.

Question: What about the BUN (female, 0.75 mg/kg, group mean) of the same molecule?
Answer: Its BUN is 15.40 mg/dL.

Question: And the “DIR BILIRUBIN” value (female, 0.75 mg/kg, group mean)?
Answer: The value was 0.00 mg/dL.

Question: And the GLOBULIN (female, 0.75 mg/kg, group mean)?
Answer: The GLOBULIN was 2.86 g/dL.

Question: And the “TOT BILIRUBIN” value (female, 0.75 mg/kg, group mean)?
Answer: Its value is 0.00 mg/dL.

Question: What about the “TOT PROTEIN” value (female, 0.75 mg/kg, group mean) of the same molecule?
Answer: The value was 6.38 g/dL.

Question: What about the ALBUMIN (male, 0.1 mg/kg, group mean) of the same molecule?
Answer: The ALBUMIN was 3.24 g/dL.

Question: And the “ALK PHOSPHATASE” value (male, 0.1 mg/kg, group mean)?
Answer: Its value is 407.40 IU/L.

Question: What about the ALT (male, 0.1 mg/kg, group mean) of the same molecule?
Answer: Its ALT is 70.60 IU/L.

Question: What about the AST (male, 0.1 mg/kg, group mean) of the same molecule?
Answer: Its AST is 96.00 IU/L.

Question: And the BUN (male, 0.1 mg/kg, group mean)?
Answer: Its BUN is 18.00 mg/dL.

Question: And the “DIR BILIRUBIN” value (male, 0.1 mg/kg, group mean)?
Answer: The value was 0.00 mg/dL.

Question: What about the GLOBULIN (male, 0.1 mg/kg, group mean) of the same molecule?
Answer: Its GLOBULIN is 2.86 g/dL.

Question: And the “TOT BILIRUBIN” value (male, 0.1 mg/kg, group mean)?
Answer: The value was 0.00 mg/dL.

Question: And the “TOT PROTEIN” value (male, 0.1 mg/kg, group mean)?
Answer: The value was 6.10 g/dL.

Question: What about the ALBUMIN (male, 0.75 mg/kg, group mean) of the same molecule?
Answer: Its ALBUMIN is 3.28 g/dL.

Question: And the “ALK PHOSPHATASE” value (male, 0.75 mg/kg, group mean)?
Answer: The value was 370.80 IU/L.

Question: What about the ALT (male, 0.75 mg/kg, group mean) of the same molecule?
Answer: The ALT was 66.80 IU/L.

Question: And the AST (male, 0.75 mg/kg, group mean)?
Answer: The AST was 89.60 IU/L.

Question: And the “DIR BILIRUBIN” value (male, 0.75 mg/kg, group mean)?
Answer: The value was 0.02 mg/dL.

Question: What about the “TOT BILIRUBIN” value (male, 0.75 mg/kg, group mean) of the same molecule?
Answer: The value was 0.02 mg/dL.

Question: And the “TOT PROTEIN” value (male, 0.75 mg/kg, group mean)?
Answer: The value was 6.04 g/dL.

Question: And the globulins (males, all anatabine dose levels, nicotine 0.75 mg/kg)?
Answer: The globulins was “marginally higher”.
